Assay results reported in US11787802B2, “Dihydrobenzimidazolones for medical treatment” (C4 Therapeutics, Inc., priority 2017, dated 2023).

Molecular target: hCereblon(M1-L442)_hDDB1(M1-H1140) (Homo sapiens (Human), UniProt Q96SW2)
Assay: Fluorescence direct binding protocol (tryptophan fluorescence titration)
Conditions: fluorescence titration at 20° C., excited at 280 nm, recorded at 340 nm; protein 5.0 E−8 M; assay buffer 50 mM Hepes 7.4 200 mM NaCl; read-out: Fluorescence h-Cereblon_DDB1 Mean Kd_EQ
Procedure, shortened: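 At 20° C., protein at constant concentration was titrated with ligand in DMSO over at least 12 steps, exciting tryptophan at 280 nm and reading emission at 340 nm. Intensities were corrected for dilution and filter effect, and Kd was fitted assuming 1:1 binding.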

Sequence of hCereblon(M1-L442)_hDDB1(M1-H1140) (Q96SW2 whole entry): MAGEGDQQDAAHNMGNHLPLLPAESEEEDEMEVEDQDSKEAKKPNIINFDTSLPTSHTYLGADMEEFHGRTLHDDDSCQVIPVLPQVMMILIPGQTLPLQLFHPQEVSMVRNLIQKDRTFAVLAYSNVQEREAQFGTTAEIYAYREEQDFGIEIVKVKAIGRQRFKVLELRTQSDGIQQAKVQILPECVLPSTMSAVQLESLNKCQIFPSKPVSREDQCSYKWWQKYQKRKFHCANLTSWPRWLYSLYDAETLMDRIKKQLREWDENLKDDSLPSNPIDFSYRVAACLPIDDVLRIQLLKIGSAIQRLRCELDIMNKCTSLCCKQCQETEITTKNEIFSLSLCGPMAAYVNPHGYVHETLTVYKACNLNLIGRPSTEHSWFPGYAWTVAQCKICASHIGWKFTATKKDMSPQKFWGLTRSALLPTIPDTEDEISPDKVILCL
Sequence of hCereblon(M1-L442)_hDDB1(M1-H1140) (Q16531 whole entry partner): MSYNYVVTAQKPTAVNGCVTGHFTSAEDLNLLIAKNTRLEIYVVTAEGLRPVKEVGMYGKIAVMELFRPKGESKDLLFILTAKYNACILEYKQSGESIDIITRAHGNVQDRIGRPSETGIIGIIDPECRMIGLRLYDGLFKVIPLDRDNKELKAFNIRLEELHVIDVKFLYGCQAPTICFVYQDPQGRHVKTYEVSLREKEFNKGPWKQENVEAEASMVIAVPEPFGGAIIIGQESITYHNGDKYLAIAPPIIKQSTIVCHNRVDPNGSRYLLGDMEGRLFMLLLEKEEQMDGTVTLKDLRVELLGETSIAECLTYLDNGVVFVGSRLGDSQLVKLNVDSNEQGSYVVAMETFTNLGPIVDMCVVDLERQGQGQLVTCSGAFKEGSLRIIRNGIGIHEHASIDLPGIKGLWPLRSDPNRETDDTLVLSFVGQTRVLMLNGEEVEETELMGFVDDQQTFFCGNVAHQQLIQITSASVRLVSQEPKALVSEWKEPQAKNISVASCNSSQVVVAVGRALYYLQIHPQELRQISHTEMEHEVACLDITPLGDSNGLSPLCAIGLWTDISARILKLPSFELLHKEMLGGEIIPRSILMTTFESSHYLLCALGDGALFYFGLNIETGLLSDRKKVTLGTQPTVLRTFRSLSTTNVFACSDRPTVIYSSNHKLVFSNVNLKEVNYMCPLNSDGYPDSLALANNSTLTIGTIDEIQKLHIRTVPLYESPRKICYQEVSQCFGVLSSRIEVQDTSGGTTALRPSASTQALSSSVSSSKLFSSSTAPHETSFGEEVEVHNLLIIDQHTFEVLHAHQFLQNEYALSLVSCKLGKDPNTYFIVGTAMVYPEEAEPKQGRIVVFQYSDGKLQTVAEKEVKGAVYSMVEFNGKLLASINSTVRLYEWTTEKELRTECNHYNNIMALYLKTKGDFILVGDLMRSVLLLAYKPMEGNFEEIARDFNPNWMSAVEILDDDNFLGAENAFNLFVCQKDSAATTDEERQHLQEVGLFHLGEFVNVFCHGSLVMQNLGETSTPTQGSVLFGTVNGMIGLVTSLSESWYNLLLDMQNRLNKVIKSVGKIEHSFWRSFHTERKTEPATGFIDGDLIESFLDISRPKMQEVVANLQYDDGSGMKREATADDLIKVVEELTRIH

Kd | Compound
52 nM | COC(=O)c1ccccc1C(=O)Nc1ccc2[nH]c(=O)[nH]c2c1 [Example 151, Methyl 2-((2-oxo-2,3-dihydro-1H-benzo[d]imidazol-5-yl)carbamoyl)benzoate]
21 nM | O=c1[nH]c2ccc(NC3CCN(Cc4ccccc4)CC3)cc2[nH]1 [Example 152, 5-((1-Benzylpiperidin-4-yl)amino)-1,3-dihydro-2H-benzo[d]imidazol-2-one]
16 nM | COC(=O)c1ccc(Nc2ccc3[nH]c(=O)[nH]c3c2)nc1 [Example 153, Methyl 6-((2-oxo-2,3-dihydro-1H-benzo[d]imidazol-5-yl)amino)nicotinate]
17 nM | O=c1[nH]c2ccc(OCc3ccccc3)cc2[nH]1 [Example 154, 5-(Benzyloxy)-1,3-dihydro-2H-benzo[d]imidazol-2-one]
22 nM | CNC(=O)c1ccc(Oc2ccc3[nH]c(=O)[nH]c3c2)cc1 [Example 156, N-Methyl-4-((2-oxo-2,3-dihydro-1H-benzo[d]imidazol-5-yl)oxy)benzamide]
55 nM | CCc1nc2cc(C(=O)NCCCCCNC(=O)C[C@@H]3N=C(c4ccc(Cl)cc4)c4c(sc(C)c4C)-n4c(C)nnc43)ccc2n1-c1ccc2[nH]c(=O)[nH]c2c1 [Example A, N-(5-(2-((6S)-4-(4-chlorophenyl)-2,3,9-trimethyl-6H-thieno[3,2-f][1,2,4]triazolo[4,3-a][1,4]diazepin-6-yl)acetamido)pentyl)-2-ethyl-2′-oxo-2′,3′-dihydro-1′H-[1,5′-bibenzo[d]imidazole]-5-carboxamide]
51 nM | CCc1nc2cc(C(=O)NCCOCCOCCNC(=O)C[C@@H]3N=C(c4ccc(Cl)cc4)c4c(sc(C)c4C)-n4c(C)nnc43)ccc2n1-c1ccc2[nH]c(=O)[nH]c2c1 [Example B, (S)—N-(2-(2-(2-(2-(4-(4-Chlorophenyl)-2,3,9-trimethyl-6H-thieno[3,2-f][1,2,4]triazolo[4,3-a][1,4]diazepin-6-yl)acetamido)ethoxy)ethoxy)ethyl)-2-ethyl-2′-oxo-2′,3′-dihydro-1′H-[1,5′-bibenzo[d]imidazole]-5-carboxamide]
19 nM | Cc1sc2c(c1C)C(c1ccc(Cl)cc1)=N[C@@H](CC(=O)NCCOCCOCCNC(=O)c1ccc3c(c1)nc(-c1ccnc4ccccc14)n3-c1ccc3[nH]c(=O)[nH]c3c1)c1nnc(C)n1-2 [Example C, (S)—N-(2-(2-(2-(2-(4-(4-Chlorophenyl)-2,3,9-trimethyl-6H-thieno[3,2-f][1,2,4]triazolo[4,3-a][1,4]diazepin-6-yl)acetamido)ethoxy)ethoxy)ethyl)-2′-oxo-2-(quinolin-4-yl)-2′,3′-dihydro-1′H-[1,5′-bibenzo[d]imidazole]-5-carboxamide]
7 nM | Cc1sc2c(c1C)C(c1ccc(Cl)cc1)=N[C@@H](CC(=O)NCCCCCNC(=O)c1cccc3c1CCN3C(=O)Nc1ccc3[nH]c(=O)[nH]c3c1)c1nnc(C)n1-2 [Example D, N4-[5-[[2-[(9S)-7-(4-Chlorophenyl)-4,5,13-trimethyl-3-thia-1,8,11,12-tetrazatricyclo[8.3.0.02,6]trideca-2(6),4,7,10,12-pentaen-9-yl]acetyl]amino]pentyl]-N1-(2-oxo-1,3-dihydrobenzimidazol-5-yl)indoline-1,4-dicarboxamide]
